Experimental data: US7666901B2, “Analogs of 17-hydroxywortmannin as PI3K inhibitors” (Wyeth, priority 2004, dated 2010)

Legend:
[1] = system: PTEN-negative breast tumor cell lines; experiment: Tumor cell growth assay, combination with CCI-779, PTEN-negative breast lines; type: cell-based, human; settings: compound 4 at 0.1 μg/ml
Procedure: (§1) Human tumor cell are all obtained from ATCC, and are cultured using standard cell culture methods. Cells are plated in 96-well culture plates at 1000 to 3000 cells per well. One day following plating, cells are treated with various doses of PI3K inhibitor Compound 4 or Compound 5 alone or with a low constant dose of MEK inhibitor 2-(2-chloro-4-iodoanilino)-N-(cycloprorylmethoxy-3,4-difluobenzamide) (1 μg/ml) or UO126 (5 μg/ml). UO126 is also known as 1,4-diamino-2,3-dicyano-1,4-bis[2-aminophenylthio]butadiene. In some experiments, cells are treated alone with various doses of the MEK inhibitor (2-(2-chloro-4-iodoanilino)-N-(cycloprorylmethoxy-3,4-difluobenzamide)), or HER2/neu inhibitor HKI-272, or mTOR inhibitor CCI-779, or with a low constant dose of Compound 4 (0.1 μg/ml). […] Three days after drug treatment, viable cell densities are determined by metabolic conversion (by viable cells) of the dye MTS, an established cell proliferation assay. […] The MTS assay results are read in a 96-well plate reader by measuring absorbance at 490 nm. The effect of each treatment is calculated as percent of control growth relative to the vehicle DMSO-treated cells grown in the same culture plate. […]

HCT116 colon tumor cells = experiment: Tumor cell growth assay, combination with MEK inhibitors, HCT116; type: cell-based, human; settings: MEK inhibitor at low constant dose
Procedure: as §1

MDA-MB-231 breast cells = experiment: Tumor cell growth assay, combination with CCI-779, MDA-MB-231; type: cell-based, human; settings: compound 4 at 0.1 μg/ml
Procedure: as §1

[2] = system: MDA231 breast tumor cells; experiment: Tumor cell growth assay, combination with MEK inhibitor, MDA231; type: cell-based, human
Procedure: as §1

[3] = system: panel of seven colon tumor lines; experiment: Tumor cell growth assay, combination with MEK inhibitor, colon panel; type: cell-based, human
Procedure: as §1

[4] = system: non-small cell lung cancer (NSCLC) cell lines; experiment: Tumor cell growth assay, combination with MEK inhibitor, NSCLC; type: cell-based, human
Procedure: as §1

[5] = system: LNCaP (human prostate carcinoma); experiment: Cell proliferation (MTS) assay, LNCaP; type: cell-based; settings: three days treatment
Procedure, shortened: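 Cells plated at about 3000 per well in RPMI-1640/10% FBS were dosed with compound one day later. Viability was read by MTS conversion (absorbance 490 nm, 1–2 h) three days after treatment began. Effect is expressed as percent of vehicle-treated growth on the same plate.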

[6] = system: DU145 prostrate tumor cells; experiment: Tumor cell growth assay, combination with MEK inhibitor, DU145; type: cell-based, human
Procedure: as §1

SMILES: COC[C@H]1OC(=O)/C(=C/N(CCO)C(C)(C)C)C2=C(O)C(=O)C3=C([C@H](OC(C)=O)C[C@@]4(C)C3CC[C@@H]4O)[C@]21C (stereo partly drawn) [Compound 4, (1E,4S,4aR,5R,6aS,7S)-1-{[tert-butyl(2-hydroxyethyl)amino]methylene}-7,11-dihydroxy-4-(methoxymethyl)-4a,6a-dimethyl-2,10-dioxo-1,2,4,4a,5,6,6a,7,8,9,9a,10-dodecahydroindeno[4,5-h]isochromen-5-yl acetate]
- growth inhibition in combination with mTOR inhibitor CCI-779 [1]: additive growth inhibition
- growth inhibition in combination with mTOR inhibitor CCI-779 ([1]; listed as compound 4): synergistically inhibited growth
- growth inhibition in combination with MEK inhibitors (HCT116 colon tumor cells): synergistically inhibited growth
- growth inhibition in combination with mTOR inhibitor CCI-779 (MDA-MB-231 breast cells): synergistically inhibited growth
- growth inhibition in combination with MEK inhibitor 2-(2-chloro-4-iodoanilino)-N-(cycloprorylmethoxy-3,4-difluobenzamide) [2]: synergistic growth inhibition
- growth inhibition in combination with MEK inhibitor 2-(2-chloro-4-iodoanilino)-N-(cycloprorylmethoxy-3,4-difluobenzamide) [3]: synergistic growth inhibition
- growth inhibition in combination with MEK inhibitor 2-(2-chloro-4-iodoanilino)-N-(cycloprorylmethoxy-3,4-difluobenzamide) [4]: synergistic growth inhibition
- LNCaP IC50 ([5]; Table 1): 0.09 mg/L
- LNCaP IC50 ([5]; Table 2): 0.05 mg/L
- growth inhibition in combination with MEK inhibitor 2-(2-chloro-4-iodoanilino)-N-(cycloprorylmethoxy-3,4-difluobenzamide) [6]: synergistic growth inhibition
